Data as given in patent publication US20250280826A1, “PLANT GROWTH PROMOTER” (KAO CORPORATION, priority 2022, published 2025).

Key:
Assay type in all cases: in vivo
[1] = tested on: soybean; test: Example 2: soybean nodule activity (ureide in exudate) one week after foliar spray
Description: Medium-term fertilizer effect type culture soil (Takii hydrous cell medium-term fertilizer effect type, Takii & Co., Ltd.) and vermiculite grains (Akagi-Engei Co., Ltd.) were mixed at a volume ratio of 1:1, and the soil was placed in a polypot (diameter: 10.5 cm, height: 9 cm). The soybean seeds used were “Enrei” (purchased from Nikko Seed Co. Ltd.). After tap water was supplied in an amount of 250 mL per pot, 2 seeds per pot were each sown at a depth of from about 1 to 2 cm from the soil surface. The number of repeats in each test plot was 6 (n=6).
1.5% agar (Wako Pure Chemical Industries, Ltd.) was added to Yeast-Mannitol (YM) medium (0.5 g of K2HPO4, 0.2 g of MgSO4-7H2O, 0.1 g of NaCl, 0.4 g of yeast extract, 10 g of mannitol, and 1 L of distilled water (pH: 6.8)) to prepare a solid medium, and a soybean Rhizobium (Bradyrhizobium japonicum) NBRC14783T strain was grown on the solid medium. A platinum loop of the grown Rhizobium was taken and inoculated in 50 mL of YM liquid medium in a Sakaguchi flask with a volume of 500 mL, and shake-cultured at 30° C. for about 36 hours. […]
Exudate components contained in the cotton balls were eluted with ultrapure water and filtered using Micro Biospin chromatography column (Bio-Rad Laboratories, Inc.). […] The 1 000-fold diluted filtrate was quantified. […]

[2] = tested on: soybean; test: Example 4: soybean yield-enhancing effect in field (dry grain mass); settings: ascorbic acid 1,500 ppm, one foliar spray, 6.7 mL per plant, day 75 after sowing
Description: The influence of foliar spray of a composition containing 1 500 ppm ascorbic acid on soybean yield was evaluated. Foliar spray was carried out only once, and types of test plots were examined (Table 5). The cultivation of soybean was carried out in a field in Tochigi Prefecture, and the soybean cultivar used was “Sato no Hohoemi.” Of the field, a ridge with a width of 2 m excluding the perimeter was used as one plot, and foliar spray treatment was carried out. 3 plot tests were carried out per test plot. An average of 10 plants were cultivated in the range of 2 m, which was set as one plot. In addition to the reagents mentioned in Example 2, polyoxyethylene lauryl ether was used as a nonionic surfactant. Further, the urea, potassium dihydrogen phosphate, sodium sulfite, glutathione, and EDTA used were those manufactured by FUJIFILM Wako Pure Chemical Corporation. The reagents were dissolved in tap water or deionized water to prepare spraying solutions. By using a battery-driven atomizer (GT-5HS, Koshin Ltd.), 6.7 mL of the ascorbic acid aqueous solution per plant was sprayed over the entire soybean plant body. […] The dry grain mass was measured as yield data. After calculating the average grain weight of each plant in one plot, the mean and the standard deviation for the eight plots were calculated (FIG. 9).

[3] = tested on: soybean; test: Example 3: soybean nodule activity, mixing ratio of ascorbic acid and antioxidant; settings: ascorbic acid dissolved in tap water, in comparison to no application
Description: The items of the preparation of soil and sowing, the inoculation of Rhizobium, the exudate collection method for measuring the amount of ureide nitrogen, which serves as an indicator of nodule activity, the experimental operation before quantification of exudate, the equipment and measurement method used for quantification of the amount of ureide nitrogen, and the standard products used and quantification were the same as those in Example 2, and the cultivation of soybean was carried out for 21 days.
The cultivation was carried out in an artificial weather apparatus (LPH-411SP, Nippon Medical & Chemical Instruments Co., Ltd.), with the light condition of a light period (light intensity from […]) of 16 hours/a dark period of 8 hours, the temperature of 30° C. for the light period/25° C. for the dark period, and a humidity of 50%. On day 7 after sowing, the plants were thinned so as to be one plant per pot. Watering was carried out by adding water to a vat placed under the pot so that about 5 cm of the lower part of the pot would be submerged after the vat had run out of water.
The spraying solutions shown in Table 4 below were prepared in the same manner as in Example 2, and 6.7 mL of each was sprayed per plant using a mister an day 14 after sowing. Foliar spray was carried out only once, and 7 types of test plots were examined (Table 4). […]

O=C1O[C@H]([C@@H](O)CO)C(O)=C1O [ascorbic acid, (R)-3,4-dihydroxy-5-((S)-1,2-dihydroxyethyl)furan-2(5H)-one]
nodule activity ([1]; ascorbic acid 1,500 ppm dissolved in deionized water, soybean early growth stage): increased | application effect of ascorbic acid (nodule activity) ([1]; ascorbic acid 1,500 ppm dissolved in tap water): tended to decrease | effects of tap water and deionized water on seed weight [2]: different from each other | nodule activity (allantoin and allantoic acid in exudate) [3]: did not change or rather decreased
